These results are taken from patent publication US20080193576A1, “Antiphlogistic and analgesic composition for topical use in a region of an animal locomotive system” (priority 2007, published 2008).

The experiment can be described thus: tests of the topical composition carried out on persons. The class given is in vivo. The following applies: compared as hydrogel-soluble NSAID component at about 2-10% of the composition.

Molecules are shown by their SMILES.

For `COC(=O)c1ccccc1O` [methyl salicylate], the “efficacy of the non-steroidal anti-inflammatory agent within the inventive composition” value was “most efficacious”.
